pIC50: −log10 of the molar value.

For one test, the system named is MDA-MB-231. As to the kind of experiment: Antiproliferative activity against human MDA-MB-231 cells assessed as cell growth inhibition measured after 48 hrs by MTT assay. Format: functional, cell-based. To be noted: MDA-MB-231, 48 h. In general terms: Tetrazolium dyes change colour on reduction, which living cells bring about.
A further test deals with MDA-MB-468. As to the kind of experiment: Antiproliferative activity against human MDA-MB-468 cells assessed as cell growth inhibition measured after 48 hrs by MTT assay. Format: functional, cell-based. The settings on record: MDA-MB-468, 48 h.

For orientation: pIC50 means −log10 of the IC50, conventionally taken in molar units. For the molecule `O=C(c1[nH]cnc1-c1nc2ccccc2[nH]1)N1CCOCC1`, the pIC50 with MDA-MB-231 is below 4.40.

With `O=C(NC1CCCC1)c1[nH]cnc1-c1nc2ccccc2[nH]1`, in the test with MDA-MB-231, the pIC50 was 4.69.

For `Cc1cc2nc(-c3nc[nH]c3C(=O)NC3CCCCC3)[nH]c2cc1C`, the pIC50 with MDA-MB-231 is 4.45.

Turning to `O=c1[nH]cc(F)c(=O)[nH]1` [FLUOROURACIL], the pIC50 with MDA-MB-231 is 4.57; with MDA-MB-468, below 3.70.

Turning to `O=C(NC1CC1)c1[nH]cnc1-c1nc2ccccc2[nH]1`, in the test on MDA-MB-231, the pIC50 was 4.45.

Turning to `O=C(NCc1cccs1)c1[nH]cnc1-c1nc2ccccc2[nH]1`, in the test on MDA-MB-231, the pIC50 was 4.45.

On to `O=C(NCc1ccco1)c1[nH]cnc1-c1nc2ccccc2[nH]1`, for which the pIC50 in the test with MDA-MB-231 is 4.65.

Consider `N#Cc1cccc(NC(=O)c2[nH]cnc2-c2nc3ccccc3[nH]2)c1`, for which the negative-log IC50 (pIC50) in the test on MDA-MB-231 was 4.60.

On to `O=C(NC1CCCCCC1)c1[nH]cnc1-c1nc2ccccc2[nH]1`, for which the pIC50 in the test with MDA-MB-231 is below 4.40.

For the molecule `Cn1c(-c2nc[nH]c2C(=O)NC2CCCCC2)nc2ccccc21`, the pIC50 in the test on MDA-MB-231 was 4.43.

Regarding `CC(C)(C)NC(=O)c1[nH]cnc1-c1nc2ccccc2[nH]1`, in the test on MDA-MB-231, the pIC50 is below 4.40.

In the case of `Cn1cnc(-c2nc3ccccc3n2C)c1C(=O)NC1CCCCC1`, the pIC50 in the test with MDA-MB-231 was below 4.40.

In the case of `O=C(Nc1cccc2ccccc12)c1[nH]cnc1-c1nc2ccccc2[nH]1`, the pIC50 with MDA-MB-231 is 4.46.

In the case of `N#Cc1ccccc1NC(=O)c1[nH]cnc1-c1nc2ccccc2[nH]1`, the pIC50 in the test on MDA-MB-231 is 4.47.

Turning to `O=C(NC1CCC1)c1[nH]cnc1-c1nc2ccccc2[nH]1`, the pIC50 with MDA-MB-231 was 4.47.

Turning to `O=C(NCC1CC1)c1[nH]cnc1-c1nc2ccccc2[nH]1`, the pIC50 in the test on MDA-MB-231 was 4.48.
